# Laboratory results taken from US20130089536A1, “PHARMACEUTICAL COMPOSITION TO PREVENT AND TREAT ALZHEIMER'S DISEASE COMPRISING GCP II MUTANT” (KOREA CENTER FOR DISEASE CONTROL AND PREVENTION, priority 2011, published 2013).
# “Also recorded” adds a separate entry of the source.
# Legend:
# [1] = target: recombinant human GCPII (rhGCP II) (Homo sapiens, UniProt Q04609); assay: Effect of 2-PMPA on Aβ1-40 cleavage of rhGCP II (ELISA); type: biochemical; details: 2-PMPA added at different concentrations, FIG. 1a
# GCP II = GCP II (Homo sapiens, UniProt Q04609); assay: NAAG cleavage assay with or without 2-PMPA; type: biochemical; details: 20 μM [3H]NAAG, 20 nM 2-PMPA, 1 hr at 37° C.; FIG. 1b
# Experimental: The activity of endogenous or over-expressed Glutamate carboxypeptidase II protein (GCP II) was measured as follows. Cell lysate (50 μg) was incubated with 20 μM of N-acetyl-L-aspartyl-L-[3,4-3H] glutamate (NAAG; NEN corporation) with or without 20 nM 2-PMPA, a GCP II specific inhibitor, in a total volume of 100 μl containing 50 mM HEPES and 150 mM NaCl for 1 hr at 37° C. Upon completion of the reaction, sample mixture was loaded on AG 1-X8 anion-exchange resin (Biorad) prepared in 96 well columns, followed by centrifugation at 2000 rpm for 5 min. The resin bound with the sample mixture was eluted with 0.5 mM formate (100 ml) and centrifuged at 2000 rpm for 5 min. All the eluted samples were mixed with 1 ml of scintillation solution (Optiphase HiSafe; Wallac) and then radioactivity was measured by scintillation counter (Wallac Inc.).
# Aβ1-40 and Aβ1-42 = Aβ1-40 and Aβ1-42 levels in cortical membrane fractions of 2-PMPA treated APP Swedish/PS1ΔE9 transgenic mice (ELISA); type: in vivo, mouse; details: 10 mg/kg intraperitoneally, 2×/wk for 1 month, 8-month old APP Swedish/PS1ΔE9 mice, FIG. 1e
# Experimental: (§1) (a, b) rhGCP II was incubated with Aβ40 or NAAG with or without 2-PMPA or EDTA. A(340 or NAAG level was detected by ELISA or NAAG cleavage assay. (c) After lentiviral GCP II was infected into rat primary astrocytes, monomeric Aβ40 was treated to cells. And 2-PMPA was treated thereto at various doses. The Aβ40 concentration in cell growth medium was measured by ELISA assay. (d, e) Eight-month old APP Swedish/PS1E9 transgenic mice were injected intraperitoneally with 10 mg/kg of 2-PMPA or PBS 2/wk for 1 month (9 times). Membrane fractions were analyzed by NAAG and ELISA assay.
# Vectors encoding the hGCP II and various mutant hGCP II genes were transfected into PC3 cells in a 12-well plate. About 30 hr later, the culture medium was changed with fresh one treated with Aβ1-40 of Aβ1-42 peptide in the presence or absence of 2-PMPA, and the cells were incubated for another 8 hr. […]
# To investigate the effect of 2-PMPA in the mouse brain, 8-month old APP Swedish/PS1Δ9 mice transfected by the same manner as described in Example <1-6> were treated nine times with 2-PMPA (10 mg/kg, intraperitoneally, 2/wk for 1 month) or the same amount of PBS. Aβp1-40 and Aβ1-42 levels in the cortical membrane fractions were analyzed by the same manner as described in Example <1-3>. NAAG cleavage activity of GCP II was measured by the same manner as described in Example <1-4>.
# lentiviral GCP II = target: T1, lentiviral GCP II (Homo sapiens, UniProt Q04609); type: cell-based
# T1 construct: host or cells: rat primary astrocytes (lentiviral infection)
# Aβ [2] = assay: Cleavage of exogenously treated Aβ in culture medium of transfected cells, ELISA; type: cell-based; details: 1 ng/ml Aβ one day after transfection, 8 hr at 37° C., FIG. 4c
# Experimental: (§2) To identify Aβ clearance activity of GCP II mutants, various mutant plasmids were transfected in PC3 cells known not to express endogenous GCP II. After 48 hr, the cell lysates were mixed with Aβ (2 μM) and incubated for overnight. The remaining Aβ peptides were detected by dot blotting and western blotting using 6E10 antibody. […] The inventors of the present invention also measured cleavage activity of GCP II on exogenously treated Aβ peptides in culture medium by ELISA. One day after transfection, 1 ng/ml Aβ was treated into the medium, followed by incubation for 8 hr at 37° C. Similarly with western blotting, residual Aβ was reduced by K699S but not by G548P (see FIG. 4c).
# Vectors encoding the hGCP II and various mutant hGCP II genes were transfected into PC3 cells in a 12-well plate. About 30 hr later, the culture medium was changed with fresh one treated with Aβ1-40 of Aβ1-42 peptide in the presence or absence of 2-PMPA, and the cells were incubated for another 8 hr. The medium was collected and assayed for residual Aβ1-40 or Aβ1-42 using ELISA kits (Invitrogen) following manufacturer's protocol. Cells transfected with the empty pcDNA3 empty vector were used as the negative control. […]
# Aβ [3] = assay: Aβ clearance activity of GCP II mutants, lysate of transfected PC3 cells, dot blotting and western blotting (6E10); type: biochemical; details: cell lysate 48 hr after transfection, Aβ 2 μM, overnight, FIGS. 4a, 4b
# Experimental: as §2
# 48 hrs later, the cell lysate was mixed with Aβ (2 μM) and incubated for overnight.
# To quantify the remaining Aβ peptides, the mixture of cell lysate and Aβ (2 μM) proceeded to dot blotting and the result was analyzed by the same manner as described in Example <2-2>. 1 μl of the mixture of cell lysate and Aβ (2 μM) was dropped on nitrocellulose membrane, which was then completely dried. The dried membrane proceeded to blocking with TBS-T containing 5% nonfat dry milk at room temperature for 1 hr. Then, the membrane was incubated with anti-Aβ antibody, 6E10 (SIGNET; SIG-39300, 1:2000) in 5% nonfat dry milk at 4° C. for overnight. […] After washing three times, proteins were detected using chemiluminescent substrate.
# [4] = NAAG hydrolysis by GCP II mutants, lysate of transfected H4 cells; type: biochemical; details: H4 cell lysate, [3H]-labeled NAAG 20 μM, FIG. 3a
# Experimental: The inventors of the present invention also investigated the changes of enzyme activity of GCP II mutant. To analyze enzyme activity of various mutants, mutant proteins with a substitution in the S1′ pocket (R210A, K699S) or S1 pocket (R536L, G548P) were transfected in H4 cells. To measure NAAG hydrolysis, cell lysate was incubated with [H]^3-labeled NAAG (20 μM) and GCP II specific […]. […] Additionally, to examine the effect of Aβ on NAAG cleavage of GCP II, rhGCP II was incubated with [H]^3-labeled NAAG (20 μM) and Aβ peptides at the same time. As a result, NAAG cleavage activity of GCP II was not affected by Aβ peptide (see FIG. 3b).
# The activity of endogenous or over-expressed Glutamate carboxypeptidase II protein (GCP II) was measured as follows. Cell lysate (50 μg) was incubated with 20 μM of N-acetyl-L-aspartyl-L-[3,4-3H] glutamate (NAAG; NEN corporation) with or without 20 nM 2-PMPA, a GCP II specific inhibitor, in a total volume of 100 μl containing 50 mM HEPES and 150 mM NaCl for 1 hr at 37° C. Upon completion of the reaction, sample mixture was loaded on AG 1-X8 anion-exchange resin (Biorad) prepared in 96 well columns, followed by centrifugation at 2000 rpm for 5 min. […] All the eluted samples were mixed with 1 ml of scintillation solution (Optiphase HiSafe; Wallac) and then radioactivity was measured by scintillation counter (Wallac Inc.). […]
# Aβ1-40 = Aβ1-40 cleavage by rhGCP II, residual Aβ by ELISA; type: biochemical; details: rhGCP II incubated with Aβ1-40, FIG. 1a
# Experimental: as §1
# As a result, rhGCP II cleaved Aβ1-40 peptides about 80 percent compared with the control, but 2-PMPA had no effect on Aβ1-40 cleavage of GCP II (see FIG. 1a). […] To investigate the effect of 2-PMPA in the mouse brain, 2-PMPA was treated into transgenic AD model mice. The inventors of the present invention used 2-PMPA (10 mg/kg, intraperitoneally, 2×/wk for 1 month) to treat 8-month old APP Swedish/PS1Δ9 transgenic mice. Aβ1-40 and Aβ1-42 levels in the cortical membrane fractions were analyzed by ELISA and NAAG cleavage activity of GCP II was measured by NAAG assay. As a result, cleavage of NAAG was reduced about 90 percent in 2-PMPA treated mouse compared with PBS control (see FIG. 1d). However, total levels of Aβ1-40 and Aβ1-42 were not changed by the treatment of 2-PMPA (see FIG. 1e). […]
# Sequence of recombinant human GCPII (rhGCP II) (Q04609 whole entry): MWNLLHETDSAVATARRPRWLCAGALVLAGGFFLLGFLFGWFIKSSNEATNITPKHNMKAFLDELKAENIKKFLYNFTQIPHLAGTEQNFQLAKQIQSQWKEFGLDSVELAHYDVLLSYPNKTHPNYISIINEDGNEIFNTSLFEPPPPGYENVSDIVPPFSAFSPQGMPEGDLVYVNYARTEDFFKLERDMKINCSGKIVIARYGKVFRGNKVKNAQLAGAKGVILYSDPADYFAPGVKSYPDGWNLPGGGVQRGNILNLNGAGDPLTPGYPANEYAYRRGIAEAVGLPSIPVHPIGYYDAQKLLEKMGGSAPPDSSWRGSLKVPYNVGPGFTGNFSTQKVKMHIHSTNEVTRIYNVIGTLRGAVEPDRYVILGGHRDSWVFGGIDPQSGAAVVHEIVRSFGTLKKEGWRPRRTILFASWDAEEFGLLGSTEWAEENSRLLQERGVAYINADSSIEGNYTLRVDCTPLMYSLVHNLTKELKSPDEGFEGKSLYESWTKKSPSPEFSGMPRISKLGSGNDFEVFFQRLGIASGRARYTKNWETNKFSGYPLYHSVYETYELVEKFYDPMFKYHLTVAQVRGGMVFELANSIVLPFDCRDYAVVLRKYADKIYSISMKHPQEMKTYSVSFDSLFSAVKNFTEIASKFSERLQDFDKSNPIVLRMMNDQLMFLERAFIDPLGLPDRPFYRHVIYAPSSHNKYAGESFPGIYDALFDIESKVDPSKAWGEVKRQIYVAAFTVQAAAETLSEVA
# Sequence of GCP II (Q04609 whole entry): as above
# T1 sequence (Q04609 whole entry): as above
compound,measurement,setting,value
"O=C(O)CCC(CP(=O)(O)O)C(=O)O (stereo not drawn) [2-PMPA, 2-(Phosphonomethyl) pentanedioic acid]",effect on Aβ1-40 cleavage of rhGCP II,[1],no effect
same,hydrolysis of NAAG by GCP II,GCP II,completely blocked
same,total level of Aβ1-40,Aβ1-40 and Aβ1-42,not changed
same,total level of Aβ1-42,Aβ1-40 and Aβ1-42,not changed
same,Aβ1-40 cleavage of lentiviral GCP II,lentiviral GCP II,did not block
G548P: GCP II mutant protein with a substitution in the S1 pocket,residual Aβ in culture medium,Aβ [2],not
same,Aβ cleavage activity compared with wild type,Aβ [3],lost Aβ cleavage activity; also recorded: did not; also recorded: lost its Aβ clearance activity
same,activity of NAAG hydrolysis maintained compared with wild type GCP II,[4]; listed as R548P,about 40%
"K699S: GCP II mutant: 699th amino acid Lysine replaced with Serine, SEQ ID. NO: 2; S1′ pocket mutant",residual Aβ in culture medium,Aβ [2],reduced
same,Aβ cleavage activity compared with wild type,Aβ [3],higher Aβ cleavage activity than the wild type; also recorded: cleaved; also recorded: cleaved Aβ more than wild type
same,activity of NAAG hydrolysis (in words),[4],completely lost; also recorded: did not cleave
"rhGCP II: recombinant human GCPII (glutamate carboxypeptidase II), wild type",Aβ1-40 peptide cleaved compared with control,Aβ1-40,about 80%
